tested on: HIV-IIIb; experiment: Test A: Antiviral Assay in MT4 Cells; type: cell-based; conditions: Human immunodeficiency virus 1, IIIB, MT4, 120 h, Table 2; MT-4 cells infected with HIV-IIIb, 5 days of incubation, CellTiter-Glo; read-out: EC50
In short: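 MT-4 cells pre-infected with HIV-IIIb (0.004 m.o.i.) at 37 °C, then exposed to 3-fold serial compound dilutions (10 concentrations, quadruplicate) in RPMI 1640/10% FBS. After 5 days at 37 °C, viability read by CellTiter-Glo luminescence.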

SMILES | EC50
Cc1cc2nc(-c3ccnc(-c4cnn(C(C)(C)C)c4)n3)sc2c(-c2ccc(Cl)cc2)c1[C@H](OC(C)(C)C)C(=O)O [Compound 346] | 11 nM
Cc1cc2nc(-c3ccc4c(cnn4C4CCOCC4)c3)sc2c(-c2ccc(Cl)cc2)c1[C@H](OC(C)(C)C)C(=O)O [Compound 348] | 30 nM
COc1ccc(-c2cc(-c3nc4cc(C)c([C@H](OC(C)(C)C)C(=O)O)c(-c5ccc(Cl)cc5)c4s3)ccn2)cc1OC [Compound 350] | 14 nM
CCCn1ncc2cc(-c3nc4cc(C)c([C@H](OC(C)(C)C)C(=O)O)c(-c5ccc(Cl)cc5)c4s3)ccc21 [Compound 352] | 29 nM
COc1ncc(-c2ccc(-c3nc4cc(C)c([C@H](OC(C)(C)C)C(=O)O)c(-c5ccc(Cl)cc5)c4s3)cc2)cn1 [Compound 355] | 182 nM
Cc1cc2nc(-c3ccc(-c4cnc(=O)[nH]c4)cc3)sc2c(-c2ccc(Cl)cc2)c1[C@H](OC(C)(C)C)C(=O)O [Compound 356] | 3330 nM
Cc1cc2nc(-c3nccc(-c4ccc5c(cnn5C)c4)n3)sc2c(-c2ccc(Cl)cc2)c1[C@H](OC(C)(C)C)C(=O)O [Compound 357] | 12 nM
Cc1cc2nc(-c3ccc4c(n3)c(C)nn4C)sc2c(-c2ccc(Cl)cc2)c1[C@H](OC(C)(C)C)C(=O)O [Compound 358] | 241 nM
Cc1cc2nc(-c3ccc4nn(C5CCN(C)CC5)cc4n3)sc2c(-c2ccc(Cl)cc2)c1[C@H](OC(C)(C)C)C(=O)O [Compound 360] | 13 nM
Cc1cc2nc(-c3ccc4c(cnn4C4CCN(C)CC4)n3)sc2c(-c2ccc(Cl)cc2)c1[C@H](OC(C)(C)C)C(=O)O [Compound 361] | 20 nM
Cc1cc2nc(-c3nn(C)c4ccncc34)sc2c(-c2ccc(Cl)cc2)c1[C@H](OC(C)(C)C)C(=O)O [Compound 363] | 15 nM
Cc1cc2nc(-c3ccc4nn(C)cc4n3)sc2c(-c2ccc(Cl)cc2)c1[C@H](OC(C)(C)C)C(=O)O [Compound 366] | 6 nM
Cc1cc2nc(-c3ccc4c(cnn4C)n3)sc2c(-c2ccc(Cl)cc2)c1[C@H](OC(C)(C)C)C(=O)O [Compound 367] | 6 nM
Cc1cc2nc(-c3ccnc(-c4ccc5nn(C6COC6)cc5c4)c3)sc2c(-c2ccc(Cl)cc2)c1[C@H](OC(C)(C)C)C(=O)O [Compound 371] | 7 nM
CCCn1ncc2cc(-c3cc(-c4nc5cc(C)c([C@H](OC(C)(C)C)C(=O)O)c(-c6ccc(Cl)cc6)c5s4)ccn3)ccc21 [Compound 373] | 37 nM
Cc1cc2nc(-c3cc(-c4ccc5c(cnn5C)c4)ccn3)sc2c(-c2ccc(Cl)cc2)c1[C@H](OC(C)(C)C)C(=O)O [Compound 375] | 228 nM
Cc1cc2nc(-c3ccnc(-c4cnn(C)c4C)c3)sc2c(-c2ccc(Cl)cc2)c1[C@H](OC(C)(C)C)C(=O)O [Compound 376] | 19 nM
Cc1cc2nc(-c3cnc4c(c3)c(N3CCN(C)CC3)cn4C)sc2c(-c2ccc(Cl)cc2)c1[C@H](OC(C)(C)C)C(=O)O [Compound 377] | 32 nM
Cc1cc2nc(-c3cnc4c(c3)c(C3=CCN(C)CC3)cn4C)sc2c(-c2ccc(Cl)cc2)c1[C@H](OC(C)(C)C)C(=O)O [Compound 378] | 51 nM
Cc1cc2cc(-c3nc4cc(C)c([C@H](OC(C)(C)C)C(=O)O)c(-c5ccc(Cl)cc5)c4s3)cnc2[nH]1 [Compound 379] | 15 nM
Cc1cc2cc(-c3cc(-c4nc5cc(C)c([C@H](OC(C)(C)C)C(=O)O)c(-c6ccc(Cl)cc6)c5s4)ccn3)cnc2[nH]1 [Compound 380] | 25 nM
Cc1cc2nc(-c3ccnc(-c4cn(C)c5ncc(F)cc45)c3)sc2c(-c2ccc(Cl)cc2)c1[C@H](OC(C)(C)C)C(=O)O [Compound 382] | 91 nM
Cc1cc2nc(C3CC=Cc4nn(C)cc43)sc2c(-c2ccc(Cl)cc2)c1[C@H](OC(C)(C)C)C(=O)O (stereo partly drawn) [Compound 384] | 332 nM
Cc1cc2nc(-c3ccnc(-c4ccc5c(c4)OCC(=O)N5)c3)sc2c(-c2ccc(Cl)cc2)c1[C@H](OC(C)(C)C)C(=O)O [Compound 391] | 11 nM
Cc1cc2nc(-c3cccc(-c4ccc5c(n4)N(C)CCO5)c3)sc2c(-c2ccc(Cl)cc2)c1[C@H](OC(C)(C)C)C(=O)O [Compound 395] | 61 nM
Cc1cc2nc(-c3ccnc(-c4cccc5c4CCN5C)c3)sc2c(-c2ccc(Cl)cc2)c1[C@H](OC(C)(C)C)C(=O)O [Compound 398] | 36 nM
COc1ncc(-c2cc(-c3nc4cc(C)c([C@H](OC(C)(C)C)C(=O)O)c(-c5ccc(Cl)cc5)c4s3)ccn2)cn1 [Compound 402] | 35 nM
CCOc1ncc(-c2cc(-c3nc4cc(C)c([C@H](OC(C)(C)C)C(=O)O)c(-c5ccc(Cl)cc5)c4s3)ccn2)cn1 [Compound 403] | 42 nM
Cc1cc2nc(-c3ccnc(-c4ccc5c(c4)N(C)CCO5)c3)sc2c(-c2ccc(Cl)cc2)c1[C@H](OC(C)(C)C)C(=O)O [Compound 404] | 41 nM
Cc1cc2nc(-c3ccnc(-c4cnc5c(c4)ncn5C)c3)sc2c(-c2ccc(Cl)cc2)c1[C@H](OC(C)(C)C)C(=O)O [Compound 405] | 37 nM

More lines, in order of falling EC50, values ahead:

EC50 | SMILES
1370 nM | Cc1cc2nc(-c3ccc(-c4ccc(Br)cc4)cc3)sc2c(-c2ccc(Cl)cc2)c1[C@H](OC(C)(C)C)C(=O)O [Compound 354]
530 nM | Cc1cc2nc(-c3cccc4c3cnn4C)sc2c(-c2ccc(Cl)cc2)c1[C@H](OC(C)(C)C)C(=O)O [Compound 387]
143 nM | Cc1cnc2n(C)cc(-c3cc(-c4nc5cc(C)c([C@H](OC(C)(C)C)C(=O)O)c(-c6ccc(Cl)cc6)c5s4)ccn3)cc1-2 [Compound 385]
56 nM | Cc1cc2nc(-c3ccnc(-c4cnc5c(c4)c(C)cn5C)c3)sc2c(-c2ccc(Cl)cc2)c1[C@H](OC(C)(C)C)C(=O)O [Compound 386]
47 nM | Cc1cc2nc(-c3cn(C)c4ncc(F)cc34)sc2c(-c2ccc(Cl)cc2)c1[C@H](OC(C)(C)C)C(=O)O [Compound 381]
45 nM | Cc1cc2nc(-c3ccnc(-c4ccc5c(cnn5C(C)C)c4)c3)sc2c(-c2ccc(Cl)cc2)c1[C@H](OC(C)(C)C)C(=O)O [Compound 374]
43 nM | Cc1cc2nc(-c3ccnc(-c4ccc5c(c4)N(C)CC5)c3)sc2c(-c2ccc(Cl)cc2)c1[C@H](OC(C)(C)C)C(=O)O [Compound 399]
42 nM | Cc1cc2nc(-c3ccnc(-c4cnn(C)c4C)n3)sc2c(-c2ccc(Cl)cc2)c1[C@H](OC(C)(C)C)C(=O)O [Compound 347]
42 nM | Cc1cc2nc(-c3ccc4[nH]ncc4c3)sc2c(-c2ccc(Cl)cc2)c1[C@H](OC(C)(C)C)C(=O)O [Compound 349]
33 nM | Cc1cc2nc(-c3ccnc(-c4ccc5c(c4)N(C)C(=O)CO5)c3)sc2c(-c2ccc(Cl)cc2)c1[C@H](OC(C)(C)C)C(=O)O [Compound 393]
32 nM | Cc1cc2nc(-c3ccnc(-c4ccc5c(c4)CCN5C)c3)sc2c(-c2ccc(Cl)cc2)c1[C@H](OC(C)(C)C)C(=O)O [Compound 397]
31 nM | Cc1cc2nc(-c3ccc4c(cnn4C(C)C)c3)sc2c(-c2ccc(Cl)cc2)c1[C@H](OC(C)(C)C)C(=O)O [Compound 353]
29 nM | Cc1cc2nc(-c3cc4cnn(C)c4cn3)sc2c(-c2ccc(Cl)cc2)c1[C@H](OC(C)(C)C)C(=O)O [Compound 365]
28 nM | Cc1cc2nc(-c3cccc4c3OCC(=O)N4)sc2c(-c2ccc(Cl)cc2)c1[C@H](OC(C)(C)C)C(=O)O [Compound 388]
27 nM | Cc1cc2nc(-c3ccnc(-c4cccc5c4OCC(=O)N5)c3)sc2c(-c2ccc(Cl)cc2)c1[C@H](OC(C)(C)C)C(=O)O [Compound 392]
25 nM | Cc1cc2nc(-c3ccnc(-c4ccc5c(c4)NC(=O)CO5)c3)sc2c(-c2ccc(Cl)cc2)c1[C@H](OC(C)(C)C)C(=O)O [Compound 394]
23 nM | Cc1cc2nc(-c3ccnc(-c4ccc5c(c4)C(=O)N(C)CCO5)c3)sc2c(-c2ccc(Cl)cc2)c1[C@H](OC(C)(C)C)C(=O)O [Compound 401]
21 nM | CCn1ncc2cc(-c3nc4cc(C)c([C@H](OC(C)(C)C)C(=O)O)c(-c5ccc(Cl)cc5)c4s3)ccc21 [Compound 351]
21 nM | Cc1cc2nc(-c3ccc4nn(C)c(C)c4n3)sc2c(-c2ccc(Cl)cc2)c1[C@H](OC(C)(C)C)C(=O)O [Compound 359]
21 nM | Cc1cc2nc(-c3c4cnccc4nn3C)sc2c(-c2ccc(Cl)cc2)c1[C@H](OC(C)(C)C)C(=O)O [Compound 362]
18 nM | Cc1cc2nc(-c3ccnc(-c4ccc5c(c4)c(N)nn5C)c3)sc2c(-c2ccc(Cl)cc2)c1[C@H](OC(C)(C)C)C(=O)O [Compound 383]
16 nM | Cc1cc2nc(-c3ccnc(-c4ccc5c(c4)OCCN5C)c3)sc2c(-c2ccc(Cl)cc2)c1[C@H](OC(C)(C)C)C(=O)O [Compound 400]
10 nM | Cc1cc2nc(-c3ccnc(-c4cnc5c(c4)OCCN5C)c3)sc2c(-c2ccc(Cl)cc2)c1[C@H](OC(C)(C)C)C(=O)O [Compound 396]
9 nM | Cc1cc2nc(-c3cc4cn(C)nc4cn3)sc2c(-c2ccc(Cl)cc2)c1[C@H](OC(C)(C)C)C(=O)O [Compound 364]
9 nM | Cc1cc2nc(-c3ccnc(-c4cccc5c4OCC(=O)N5C)c3)sc2c(-c2ccc(Cl)cc2)c1[C@H](OC(C)(C)C)C(=O)O [Compound 390]
8 nM | Cc1cc2nc(-c3ccnc(-c4cc5cnn(C)c5cn4)c3)sc2c(-c2ccc(Cl)cc2)c1[C@H](OC(C)(C)C)C(=O)O [Compound 369]
7 nM | Cc1cc2nc(-c3ccnc(-c4ccc5c(cnn5C5COC5)c4)c3)sc2c(-c2ccc(Cl)cc2)c1[C@H](OC(C)(C)C)C(=O)O [Compound 372]
7 nM | Cc1cc2nc(-c3ccnc(-c4ccc5c(c4)OCC(=O)N5C)c3)sc2c(-c2ccc(Cl)cc2)c1[C@H](OC(C)(C)C)C(=O)O [Compound 389]
5 nM | Cc1cc2nc(-c3ccnc(-c4cc5cn(C)nc5cn4)c3)sc2c(-c2ccc(Cl)cc2)c1[C@H](OC(C)(C)C)C(=O)O [Compound 368]
4 nM | Cc1cc2nc(-c3ccnc(-c4ccc5nn(C)cc5n4)c3)sc2c(-c2ccc(Cl)cc2)c1[C@H](OC(C)(C)C)C(=O)O [Compound 370]

Source: patent US8987250B2 (Gilead Sciences, Inc., priority 2012, dated 2015)
